{"source": "patent US20250319145A1", "about": "“EXTRACT WITH ANTI-INFLAMMATORY EFFECT” (Medizinische Universitat Innsbruck, priority 2021, published 2025)", "key": {"[1]": {"tested_on": "reconstructed human epidermis (RHE)-models", "experiment": "Cytokine release in reconstituted human epidermis model after TNFα", "type": "cell-based", "conditions": "0.75 ng/ml TNFα, extract 10 μg/ml in medium, 24 h and 48 h", "method": "The bioactivity of the extract of Chromochloris zofingiensis (2022C) was tested in human epidermis equivalents by measuring cytokine secretion in response to TNFα treatment.\nThe extract was tested in a physiological relevant set-up represented by reconstructed human epidermis (RHE)-models (FIG. 2), (W. Pixelproduction, epiCS—CellSystems GmbH. [Online]. Available: https://cellsystems.de/cells-and-media/c/epics (accessed: Oct. 2 2020)), purchased from Cell Systems. epiCS RHE models are validated for the classification of compounds according to the OECD test guideline 431. […]\nThe secretion of relevant pro-inflammatory cytokines of RHE-models (from Cell Systems Biotechnology), were quantified after induction with 0.75 ng/ml TNFα and treatment with DMSO, WFA or the extract of Chromochloris zofingiensis in a concentration of 10 μg/ml in DMSO.\nAfter culturing the keratinocyte cell layer in cell culture inserts (0.6 cm^2) under submerged conditions, the tissues were lifted to the air-liquid interphase to induce differentiation, epithelial stratification and cornification. […] The cytokine release was evaluated 24 h and 48 h after the TNFα treatment. The secretion of the cytokines IL-1ra, RANTES, IL-1α, GM-CSF, TSLP, IP-10, IL-18, IL-6, IL-8, IL-10, MCP-1, IL-1β, TNFα and INF-β was measured. […]"}, "[2]": {"target": "T1, IKKβ Kinase (Homo sapiens, UniProt O14920)", "T1 construct": "made in house; host or cells: HEK 293T cells (transient transfection, anti-HA immunoprecipitation)", "T1 sequence (O14920 1-756)": "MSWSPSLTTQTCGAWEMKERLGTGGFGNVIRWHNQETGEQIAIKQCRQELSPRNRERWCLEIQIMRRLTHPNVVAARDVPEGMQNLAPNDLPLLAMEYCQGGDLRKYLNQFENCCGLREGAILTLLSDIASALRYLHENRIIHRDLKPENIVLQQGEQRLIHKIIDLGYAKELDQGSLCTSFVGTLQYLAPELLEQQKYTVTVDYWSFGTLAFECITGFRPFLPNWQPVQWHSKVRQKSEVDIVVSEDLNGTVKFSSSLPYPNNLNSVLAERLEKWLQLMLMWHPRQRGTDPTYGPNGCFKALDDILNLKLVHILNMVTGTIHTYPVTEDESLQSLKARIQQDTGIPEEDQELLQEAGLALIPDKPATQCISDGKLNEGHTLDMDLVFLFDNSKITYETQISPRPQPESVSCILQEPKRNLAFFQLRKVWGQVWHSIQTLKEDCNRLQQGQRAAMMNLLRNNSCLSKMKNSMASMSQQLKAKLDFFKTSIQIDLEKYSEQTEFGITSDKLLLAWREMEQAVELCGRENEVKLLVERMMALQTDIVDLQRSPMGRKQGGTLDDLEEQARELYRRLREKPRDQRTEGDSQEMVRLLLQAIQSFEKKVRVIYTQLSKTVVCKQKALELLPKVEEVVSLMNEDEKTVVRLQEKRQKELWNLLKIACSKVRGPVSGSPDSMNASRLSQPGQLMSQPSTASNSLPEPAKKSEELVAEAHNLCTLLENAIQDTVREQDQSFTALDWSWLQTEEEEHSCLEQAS", "experiment": "In vitro immunoprecipitation IKKβ kinase assay with IκBα as substrate (autoradiography)", "type": "biochemical", "conditions": "1.6, 2.8 and 6% vs DMSO control; FIG. 9", "method": "The IKK complex subunit IKKβ is responsible for the phosphorylation of IκBα and it's targeting for degradation upon TNFα induction. Therefore, it has been investigated whether the extracts inhibit IKKβ. […] The kinase assay was based on quantifying the activity of the kinase IKKβ via autoradiography.\nSpecifically, HEK 293T cells were transfected with the HA-IKKβ construct. Cells were washed with ice-cold phosphate-buffered saline (PBS) and extracted with lysis buffer containing 50 mM HEPES (pH 7.5), 150 mM NaCl, 1% (vol/vol) Nonidet P-40, 2 mM EDTA, 50 mM sodium fluoride, 10 mM sodium pyrophosphate, 1 mM sodium orthovanadate, 50 μg of leupeptin (Boehringer Mannheim)/ml, 0.5% aprotinin (Sigma), 1 mM phenylmethylsulphonyl fluoride (Sigma), and 3 mM benzamidine (Sigma). 300 ng of total protein were immunoprecipitated with 2 μg of anti-HA antibodies and immune complexes were collected using protein A-Sepharose beads (Amersham Pharmacia Biotech). Immune complexes were washed three times with lysis buffer followed by a single wash with high salt buffer (500 mM NaCl) and kinase assay buffer (50 mM HEPES [pH 7.5], 10 mM MgCl2, 1 mM dithiothreitol, 10 mM β-glycerophosphate). […] Samples were subjected to 10% SDS-PAGE, and the amount of ^32P incorporated into the IKKβ and IκBα proteins was assessed by autoradiography (FIG. 4). […]"}}}
{"compound": "CC1=C(CO)C(=O)O[C@@H]([C@@H](C)[C@H]2CC[C@H]3[C@@H]4C[C@H]5O[C@]56[C@@H](O)C=CC(=O)[C@]6(C)[C@H]4CC[C@]23C)C1", "note": "[WFA, Withaferin A]", "values": [{"measurement": "release of IL-10, MCP-1, IP-10 and RANTES", "setting": "[1]", "result": "substantial decrease"}]}
{"compound": "diacylglyceryl-N,N,N-trimethylhomoserine [DGTS]", "values": [{"measurement": "direct inhibition of the IKKβ kinase", "setting": "[2]", "result": "no inhibition"}]}
